{"source": "patent US10952992B2", "about": "“Methods of treating intraocular pressure with activators of Tie-2” (Aerpio Pharmaceuticals, Inc., priority 2015, dated 2021)", "key": {"[1]": {"system": "intraocular pressure in patients with diabetic macular edema", "assay": "Change in intraocular pressure from baseline, Compound 1 BID for 28 days (FIG. 1)", "type": "in vivo, human", "conditions": "doses greater than 15 mg BID, 28 Day EOT", "description": "The difference in IOP was determined at the end of the trial, which was 28 days after treatment began (28 Day EOT). Changes in IOP were determined both in the study eye and the fellow eye."}, "[2]": {"assay": "In vitro diffusion across rabbit cornea and sclera in Franz cell", "type": "in vitro ADME", "conditions": "1.5% of the sodium salt with 5% HPβCD in 50:50 D5W:sterile water"}, "[3]": {"system": "intraocular pressure in normotensive New Zealand White rabbits", "assay": "Example 3 intraocular pressure after repeated topical and subcutaneous administration (pneumotonometer)", "type": "in vivo", "design": "IOP, individual animal / IOP, group Average: unit not given here", "description": "To measure the tolerability and effect of Compound 1 (sodium salt) on intraocular pressure following repeated topical and subcutaneous administration, normotensive New Zealand White rabbits were treated with Compound 1 (sodium salt). Animals were acclimated 1 to 2 times per day to the intraocular pressure (IOP) measurement procedures prior to initiation of the study to determine baseline IOP levels. IOP acclimation was performed in the two weeks prior to study start for a total of 5 days. Animals with unacceptable IOP values were excluded from the study. Prior to taking all IOP measurements, 1 to 2 drops of a 0.5% proparacaine solution were applied to the eye as a topical anesthetic. OP measurements were performed with a pneumotonometer. Test and control formulations were administered to the animals once or twice daily topically into both eyes or subcutaneously starting on Day 1 according to TABLE 20 and TABLE 21 below. PM dosing, where applicable, was performed ˜8 hours after AM dosing. IOP measurements were performed twice (AM and PM) at baseline (prior to the start of dosing), twice (AM and PM) on Days 1 and 7, and once daily (AM) on Days 2-6 and Day 8. Prior to taking all IOP measurements, 1 to 2 drops of a 0.5% proparacaine solution were applied to the eye as a topical anesthetic. IOP measurements were performed with a pneumotonometer. AM IOP measurements were performed 2 hours after AM dosing; the only exceptions were Day 8 AM measurements, which were performed 24 hours after the final dose. PM IOP measurements were performed ˜5 hours (baseline and Day 1) or ˜4 hours (Day 7) after AM IOP measurements, prior to PM dosing, with at least 15 minutes elapsing between anesthetic application for PM IOP measurements and PM dosing. The final round of slit-lamp examinations was performed on Day 8."}, "[4]": {"conditions": "Group 2: 0.45 mg/eye topical sodium salt BID, Day 1, AM, OD"}, "[5]": {"conditions": "Group 2: 0.45 mg/eye topical sodium salt BID, Day 1, AM, OS"}, "[6]": {"conditions": "Group 2: 0.45 mg/eye topical sodium salt BID, Day 1, PM, OD"}, "[7]": {"conditions": "Group 2: 0.45 mg/eye topical sodium salt BID, Day 1, PM, OS"}, "[8]": {"conditions": "Group 2: 0.45 mg/eye topical sodium salt BID, Day 2, AM, OD"}, "[9]": {"conditions": "Group 2: 0.45 mg/eye topical sodium salt BID, Day 2, AM, OS"}, "[10]": {"conditions": "Group 2: 0.45 mg/eye topical sodium salt BID, Day 3, AM, OD"}, "[11]": {"conditions": "Group 2: 0.45 mg/eye topical sodium salt BID, Day 3, AM, OS"}, "[12]": {"conditions": "Group 2: 0.45 mg/eye topical sodium salt BID, Day 4, AM, OD"}, "[13]": {"conditions": "Group 2: 0.45 mg/eye topical sodium salt BID, Day 4, AM, OS"}, "[14]": {"conditions": "Group 2: 0.45 mg/eye topical sodium salt BID, Day 5, AM, OD"}, "[15]": {"conditions": "Group 2: 0.45 mg/eye topical sodium salt BID, Day 5, AM, OS"}, "[16]": {"conditions": "Group 3: 1.2 mg/eye topical sodium salt BID, Day 1, AM, OD"}, "[17]": {"conditions": "Group 3: 1.2 mg/eye topical sodium salt BID, Day 1, AM, OS"}, "[18]": {"conditions": "Group 3: 1.2 mg/eye topical sodium salt BID, Day 1, PM, OD"}, "[19]": {"conditions": "Group 3: 1.2 mg/eye topical sodium salt BID, Day 1, PM, OS"}, "[20]": {"conditions": "Group 3: 1.2 mg/eye topical sodium salt BID, Day 2, AM, OD"}, "[21]": {"conditions": "Group 3: 1.2 mg/eye topical sodium salt BID, Day 2, AM, OS"}, "[22]": {"conditions": "Group 3: 1.2 mg/eye topical sodium salt BID, Day 3, AM, OD"}, "[23]": {"conditions": "Group 3: 1.2 mg/eye topical sodium salt BID, Day 3, AM, OS"}, "[24]": {"conditions": "Group 3: 1.2 mg/eye topical sodium salt BID, Day 4, AM, OD"}}, "note": "“And” between values parts separate entries of the source, which are not always exact repeats. Identical values can stand only once.", "data": [{"smiles": "COC(=O)N[C@@H](Cc1ccccc1)C(=O)N[C@@H](Cc1ccc(NS(=O)(=O)O)cc1)c1csc(-c2cccs2)n1", "note": "[Compound 1]", "values": [{"measurement": "change in IOP relative to pre-treatment baseline", "setting": "[1]", "value": "decreased IOP"}, {"measurement": "diffusion across rabbit cornea and sclera in Franz cell", "setting": "[2]", "value": "substantial diffusion"}, {"measurement": "IOP, group Average", "setting": "[3]; [4]", "value": 22.1}, {"measurement": "IOP, individual animal", "setting": "[3]; [4]", "value": "20.3 and 23.7 and 24.0 and 20.7 and 21.7"}, {"measurement": "IOP, group Average", "setting": "[3]; [5]", "value": 23.3}, {"measurement": "IOP, individual animal", "setting": "[3]; [5]", "value": "20.7 and 23.3 (2×) and 25.2 and 23.8"}, {"measurement": "IOP, group Average", "setting": "[3]; [6]", "value": 25.5}, {"measurement": "IOP, individual animal", "setting": "[3]; [6]", "value": "24.8 (2×) and 29.5 and 22.0 and 26.2"}, {"measurement": "IOP, group Average", "setting": "[3]; [7]", "value": 26.1}, {"measurement": "IOP, individual animal", "setting": "[3]; [7]", "value": "24.8 and 24.2 and 28.8 and 25.3 and 27.2"}, {"measurement": "IOP, group Average", "setting": "[3]; [8]", "value": 21.9}, {"measurement": "IOP, individual animal", "setting": "[3]; [8]", "value": "22.0 and 22.7 and 25.0 and 18.3 and 21.7"}, {"measurement": "IOP, group Average", "setting": "[3]; [9]", "value": 22.2}, {"measurement": "IOP, individual animal", "setting": "[3]; [9]", "value": "21.8 and 22.3 and 24.3 and 20.8 and 21.5"}, {"measurement": "IOP, group Average", "setting": "[3]; [10]", "value": 24.0}, {"measurement": "IOP, individual animal", "setting": "[3]; [10]", "value": "25.0 and 24.2 and 26.0 and 20.8 and 23.8"}, {"measurement": "IOP, group Average", "setting": "[3]; [11]", "value": 24.5}, {"measurement": "IOP, individual animal", "setting": "[3]; [11]", "value": "25.3 and 23.5 and 26.0 and 23.0 and 24.5"}, {"measurement": "IOP, group Average", "setting": "[3]; [12]", "value": 23.9}, {"measurement": "IOP, individual animal", "setting": "[3]; [12]", "value": "23.8 and 22.0 and 26.7 and 21.3 and 25.7"}, {"measurement": "IOP, group Average", "setting": "[3]; [13]", "value": 24.3}, {"measurement": "IOP, individual animal", "setting": "[3]; [13]", "value": "23.0 and 22.7 and 26.3 and 23.5 and 26.2"}, {"measurement": "IOP, group Average", "setting": "[3]; [14]", "value": 25.2}, {"measurement": "IOP, individual animal", "setting": "[3]; [14]", "value": "28.8 and 22.8 and 28.0 and 20.7 and 25.7"}, {"measurement": "IOP, group Average", "setting": "[3]; [15]", "value": 26.5}, {"measurement": "IOP, individual animal", "setting": "[3]; [15]", "value": "28.8 and 25.0 and 28.0 and 24.2 and 26.3"}, {"measurement": "IOP, group Average", "setting": "[3]; Group 2: 0.45 mg/eye topical sodium salt BID, Day 6, AM, OD", "value": 25.5}, {"measurement": "IOP, group Average", "setting": "[3]; Group 2: 0.45 mg/eye topical sodium salt BID, Day 6, AM, OS", "value": 25.4}, {"measurement": "IOP, group Average", "setting": "[3]; Group 2: 0.45 mg/eye topical sodium salt BID, Day 7, AM, OD", "value": 23.7}, {"measurement": "IOP, group Average", "setting": "[3]; Group 2: 0.45 mg/eye topical sodium salt BID, Day 7, AM, OS", "value": 24.5}, {"measurement": "IOP, group Average", "setting": "[3]; Group 2: 0.45 mg/eye topical sodium salt BID, Day 7, PM, OD", "value": 25.1}, {"measurement": "IOP, group Average", "setting": "[3]; Group 2: 0.45 mg/eye topical sodium salt BID, Day 7, PM, OS", "value": 25.6}, {"measurement": "IOP, group Average", "setting": "[3]; Group 2: 0.45 mg/eye topical sodium salt BID, Day 8, AM (24 hours after final dose), OD", "value": 24.9}, {"measurement": "IOP, group Average", "setting": "[3]; Group 2: 0.45 mg/eye topical sodium salt BID, Day 8, AM (24 hours after final dose), OS", "value": 25.1}, {"measurement": "IOP, group Average", "setting": "[3]; [16]", "value": 22.0}, {"measurement": "IOP, individual animal", "setting": "[3]; [16]", "value": "23.2 and 20.7 and 24.0"}, {"measurement": "IOP, group Average", "setting": "[3]; [17]", "value": 23.2}, {"measurement": "IOP, individual animal", "setting": "[3]; [17]", "value": "23.8 and 23.0 and 24.7"}, {"measurement": "IOP, group Average", "setting": "[3]; [18]", "value": 24.1}, {"measurement": "IOP, individual animal", "setting": "[3]; [18]", "value": "23.8 and 22.7 and 24.7"}, {"measurement": "IOP, group Average", "setting": "[3]; [19]", "value": 24.9}, {"measurement": "IOP, individual animal", "setting": "[3]; [19]", "value": "24.5 and 23.7 and 26.8"}, {"measurement": "IOP, group Average", "setting": "[3]; [20]", "value": 20.8}, {"measurement": "IOP, individual animal", "setting": "[3]; [20]", "value": "17.5 and 18.5 and 24.3"}, {"measurement": "IOP, group Average", "setting": "[3]; [21]", "value": 21.2}, {"measurement": "IOP, individual animal", "setting": "[3]; [21]", "value": "19.3 and 20.2 and 24.0"}, {"measurement": "IOP, group Average", "setting": "[3]; [22]", "value": 20.7}, {"measurement": "IOP, individual animal", "setting": "[3]; [22]", "value": "19.2 and 20.0 and 23.0"}, {"measurement": "IOP, group Average", "setting": "[3]; [23]", "value": 21.2}, {"measurement": "IOP, individual animal", "setting": "[3]; [23]", "value": "20.0 and 20.8 and 22.7"}, {"measurement": "IOP, group Average", "setting": "[3]; [24]", "value": 22.8}, {"measurement": "IOP, individual animal", "setting": "[3]; [24]", "value": "23.2 and 19.8 and 23.8 and 24.8"}, {"measurement": "IOP, group Average", "setting": "[3]; Group 3: 1.2 mg/eye topical sodium salt BID, Day 4, AM, OS", "value": 23.2}]}]}
